# Measured values as given in patent publication US9695155B2, “Herbicidal substituted pyrimidinyloxy benzene compounds” (E. I. DU PONT DE NEMOURS AND COMPANY, priority 2013, dated 2017).
# Legend:
# [1] = test system: pigweed; experiment: Test A postemergence; format: in vivo, Amaranthus retroflexus
# Procedure, shortened: (§1)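 Injury scores run from 0, no effect, to 100, complete control, judged by eye against untreated plants roughly 10 days after treatment. Chemicals carried a surfactant in a non-phytotoxic solvent and went onto loam–sand soil preemergence or onto one- to two-leaf seedlings postemergence.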
# [2] = test system: giant foxtail; experiment: Test A preemergence; format: in vivo, Setaria faberii
# Procedure, shortened: as §1
# [3] = test system: lambsquarters; experiment: Test C postemergence; format: in vivo, Chenopodium album; details: Chenopodium album, post-emergence
# Source text: (§2) Seeds of plant species selected from blackgrass (Alopecurus myosuroides), Italian ryegrass (Lolium multiflorum), wheat, winter (winter wheat, Triticum aestivum), galium (catchweed bedstraw, Galium aparine), corn (Zea mays), large (Lg) crabgrass (Digitaria sanguinalis), giant foxtail (Setaria faberii), johnsongrass (Sorghum halepense), lambsquarters (Chenopodium album), morningglory (Ipomoea coccinea), yellow nutsedge (Cyperus esculentus), pigweed (Amaranthus retroflexus), ragweed (common ragweed, Ambrosia elatior), soybean (Glycine max), barnyardgrass (Echinochloa crus-galli), oilseed rape (Brassica napus), waterhemp (common waterhemp, Amaranthus rudis), kochia (Kochia scoparia), wild oat (Avena fatua), surinam grass (Brachiaria decumbens), foxtail, green (green foxtail, Setaria viridis), goosegrass (Eleusine indica), bromegrass, downy (downy bromegrass, Bromus tectorum), nightshade (eastern black nightshade, Solanum ptycanthum), cocklebur (common cocklebur, Xanthium strumarium), cupgrass, woolly (woolly cupgrass, Eriochloa villosa), bermudagrass (Cynodon dactylon), sunflower, (common oilseed sunflower, Helianthus annuus), Russian thistle (Salsola kali), and velvetleaf (Abutilon theophrasti) were planted into a blend of loam soil and sand and treated preemergence with test chemicals formulated in a non-phytotoxic solvent mixture which included a surfactant.
# (§3) At the same time, plants selected from these crop and weed species and also barley, winter (winter barley, Hordeum vulgare), windgrass (Apera spica-venti), chickweed (common chickweed, Stellaria media), deadnettle (henbit deadnettle, Lamium amplexicaule), and canarygrass (littleseed canarygrass, Phalaris minor) were planted in pots containing Redi-Earth® planting medium (Scotts Company, 14111 Scottslawn Road, Marysville, Ohio 43041) comprising spaghnum peat moss, vermiculite, wetting agent and starter nutrients and treated with postemergence applications of test chemicals formulated in the same manner. Plants ranged in height from 2 to 18 cm (1- to 4-leaf stage) for postemergence treatments. Treated plants and controls were maintained in a greenhouse for 13 to 15 days, after which time all species were compared to controls and visually evaluated. Plant response ratings, summarized in Table C, are based on a scale of 0 to 100 where 0 is no effect and 100 is complete control. A dash (-) response means no test result.
# [4] = test system: giant foxtail; experiment: Test A postemergence; format: in vivo, Setaria faberii
# Procedure, shortened: as §1
# [5] = test system: barnyardgrass; experiment: Test B flooded paddy test; format: in vivo, Echinochloa crus-galli; details: Flood, 250 g ai/ha, 0 to 100 scale where 0 is no effect and 100 is complete control
# Procedure, shortened: (§4)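 2-leaf stage plants; pots flooded to 3 cm, compound added to paddy water, depth maintained. Greenhouse 13–15 d. Visual rating vs untreated controls, 0 (no effect) to 100 (complete control); dash = no result.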
# [6] = test system: rice; experiment: Test B flooded paddy test; format: in vivo, Oryza sativa; details: Flood, 250 g ai/ha, 0 to 100 scale where 0 is no effect and 100 is complete control
# Procedure, shortened: as §4
# [7] = test system: galium; experiment: Test C postemergence; format: in vivo, Galium aparine; details: Galium, post-emergence
# Source text: as §2, §3
# [8] = test system: sedge, umbrella; experiment: Test B flooded paddy test; format: in vivo, Cyperus difformis; details: Flood, 250 g ai/ha, 0 to 100 scale where 0 is no effect and 100 is complete control
# Procedure, shortened: as §4
# [9] = test system: Italian ryegrass; experiment: Test C postemergence; format: in vivo, Lolium multiflorum; details: Lolium multiflorum, post-emergence
# Source text: as §2, §3
# [10] = test system: corn; experiment: Test A preemergence; format: in vivo, Zea mays
# Procedure, shortened: as §1
# [11] = test system: large (Lg) crabgrass; experiment: Test A postemergence; format: in vivo, Digitaria sanguinalis
# Procedure, shortened: as §1
# [12] = test system: chickweed; experiment: Test C postemergence; format: in vivo, Stellaria media; details: Stellaria media, post-emergence
# Source text: as §2, §3
# [13] = test system: wheat; experiment: Test A preemergence; format: in vivo, Triticum aestivum
# Procedure, shortened: as §1
# [14] = test system: soybean; experiment: Test C postemergence; format: in vivo, Glycine max; details: Glycine max, post-emergence
# Source text: as §2, §3
# [15] = 125 g ai/ha, 0 to 100 scale where 0 is no effect and 100 is complete control
# [16] = 500 g ai/ha, 0 to 100 scale where 0 is no effect and 100 is complete control
# [17] = 125 g ai/ha, 0 to 100 scale, 0 no effect, 100 complete control
smiles,measurement,setting,value
"Clc1cnn(-c2ccccc2Oc2ncc(Br)cn2)c1 [Compound 5, 5-bromo-2-[2-(4-chloro-1H-pyrazol-1-yl)phenoxy]pyrimidine]",pest or weed control at 125 g/ha,"[1]; Amaranthus retroflexus, post-emergence, 125 g ai/ha, 0 to 100 scale where 0 is no effect and 100 is complete control, read-out: Plant response rating, Pigweed",100%
same,pest or weed control at 500 g/ha,"[1]; Amaranthus retroflexus, post-emergence, 240 h, 500 g ai/ha, 0 to 100 scale, 0 no effect, 100 complete control, read-out: Plant response rating Pigweed",100%
same,pest or weed control at 125 g/ha,"[2]; Setaria faberi, pre-emergence, 240 h, 125 g ai/ha, 0 to 100 scale where 0 is no effect and 100 is complete control, read-out: Foxtail, Giant plant response rating",90%
same,pest or weed control at 500 g/ha,"[2]; Setaria faberi, pre-emergence, 240 h, 500 g ai/ha, 0 to 100 scale, 0 no effect, 100 complete control, approx. 10 days, read-out: Foxtail, Giant plant response rating",100%
same,pest or weed control at 125 g/ha,"[3]; 125 g ai/ha, postemergence, read-out: Plant response rating (0 to 100), Lambsquarters",98%
same,pest or weed control at 250 g/ha,"[3]; 250 g ai/ha, postemergence, read-out: Plant response rating (0 to 100), Lambsquarters",98%
same,pest or weed control at 31 g/ha,"[3]; Postemergence, 31 g ai/ha, scale 0 to 100 (0 no effect, 100 complete control), 13 to 15 days, read-out: Plant response rating, Lambsquarters",80%
same,pest or weed control at 62 g/ha,"[3]; Postemergence, 62 g ai/ha, scale 0 to 100 (0 no effect, 100 complete control), read-out: Plant response rating, Lambsquarters",95%
same,pest or weed control at 125 g/ha,"[4]; Setaria faberi, post-emergence, 240 h, 125 g ai/ha, 0 to 100 scale where 0 is no effect and 100 is complete control, read-out: Plant response rating, Foxtail, Giant",40%
same,pest or weed control at 500 g/ha,"[4]; Setaria faberi, post-emergence, 240 h, 500 g ai/ha, 0 to 100 scale, 0 no effect, 100 complete control, read-out: Plant response rating Foxtail, Giant",100%
same,pest or weed control at 250 g/ha,"[5]; Echinochloa crus-galli, read-out: Plant response rating, Barnyardgrass",0%
same,plant injury at 250 g/ha,"[6]; Oryza sativa, read-out: Plant response rating, Rice",10%
same,pest or weed control at 125 g/ha,"[7]; 125 g ai/ha, postemergence, read-out: Plant response rating (0 to 100), Galium",80%
same,pest or weed control at 250 g/ha,"[7]; 250 g ai/ha, postemergence, read-out: Plant response rating (0 to 100), Galium",95%
same,pest or weed control at 31 g/ha,"[7]; Postemergence, 31 g ai/ha, scale 0 to 100 (0 no effect, 100 complete control), 13 to 15 days, read-out: Plant response rating, Galium",55%
same,pest or weed control at 62 g/ha,"[7]; Postemergence, 62 g ai/ha, scale 0 to 100 (0 no effect, 100 complete control), read-out: Plant response rating, Galium",70%
same,pest or weed control at 250 g/ha,"[8]; Cyperus difformis, read-out: Plant response rating, Sedge, Umbrella",50%
same,pest or weed control at 125 g/ha,"[9]; 125 g ai/ha, postemergence, read-out: Plant response rating (0 to 100), Ryegrass, Italian",10%
same,pest or weed control at 250 g/ha,"[9]; 250 g ai/ha, postemergence, read-out: Plant response rating (0 to 100), Ryegrass, Italian",25%
same,pest or weed control at 31 g/ha,"[9]; Postemergence, 31 g ai/ha, scale 0 to 100 (0 no effect, 100 complete control), 13 to 15 days, read-out: Plant response rating, Ryegrass, Italian",0%
same,pest or weed control at 62 g/ha,"[9]; Postemergence, 62 g ai/ha, scale 0 to 100 (0 no effect, 100 complete control), read-out: Plant response rating, Ryegrass, Italian",5%
same,plant injury at 125 g/ha,"[10]; Zea mays, pre-emergence, 240 h, 125 g ai/ha, 0 to 100 scale where 0 is no effect and 100 is complete control, read-out: Corn plant response rating",0%
same,plant injury at 500 g/ha,"[10]; Zea mays, pre-emergence, 240 h, 500 g ai/ha, 0 to 100 scale, 0 no effect, 100 complete control, approx. 10 days, read-out: Corn plant response rating",0%
same,pest or weed control at 125 g/ha,"[11]; Digitaria sanguinalis, post-emergence, 240 h, 125 g ai/ha, 0 to 100 scale where 0 is no effect and 100 is complete control, read-out: Plant response rating, Crabgrass, Large",30%
same,pest or weed control at 500 g/ha,"[11]; Digitaria sanguinalis, post-emergence, 240 h, 500 g ai/ha, 0 to 100 scale, 0 no effect, 100 complete control, read-out: Plant response rating Crabgrass, Large",80%
same,pest or weed control at 250 g/ha,"[12]; 250 g ai/ha, postemergence, read-out: Plant response rating (0 to 100), Chickweed",45%
same,pest or weed control at 31 g/ha,"[12]; Postemergence, 31 g ai/ha, scale 0 to 100 (0 no effect, 100 complete control), 13 to 15 days, read-out: Plant response rating, Chickweed",5%
same,pest or weed control at 62 g/ha,"[12]; Postemergence, 62 g ai/ha, scale 0 to 100 (0 no effect, 100 complete control), read-out: Plant response rating, Chickweed",15%
same,plant injury at 125 g/ha,"[13]; Triticum aestivum, pre-emergence, 240 h, 125 g ai/ha, 0 to 100 scale where 0 is no effect and 100 is complete control, read-out: Wheat plant response rating",0%
same,plant injury at 500 g/ha,"[13]; Triticum aestivum, pre-emergence, 240 h, 500 g ai/ha, 0 to 100 scale, 0 no effect, 100 complete control, approx. 10 days, read-out: Wheat plant response rating",20%
same,"Soybean plant response rating (crop injury, 0-100 scale) at 125 g/ha","[14]; 125 g ai/ha, postemergence, read-out: Plant response rating (0 to 100), Soybean",95%
same,"Soybean plant response rating (crop injury, 0-100 scale) at 250 g/ha","[14]; 250 g ai/ha, postemergence",95%
same,"Soybean plant response rating (crop injury, 0-100 scale) at 31 g/ha","[14]; Postemergence, 31 g ai/ha, scale 0 to 100 (0 no effect, 100 complete control), 13 to 15 days",55%
same,"Soybean plant response rating (crop injury, 0-100 scale) at 62 g/ha","[14]; Postemergence, 62 g ai/ha, scale 0 to 100 (0 no effect, 100 complete control)",90%
N#Cc1cnn(-c2c(C#N)cccc2Oc2ncc(Br)cn2)c1 [Compound 135],Pigweed plant response rating,[1]; [15],70
same,"Plant response rating, Pigweed",[1]; [16],100
same,"Plant response rating, Foxtail, Giant",[2]; [15],70
same,"Foxtail, Giant plant response rating",[2]; [16],100
same,"Foxtail, Giant plant response rating",[4]; [15],70
same,"Plant response rating, Foxtail, Giant",[4]; [16],100
same,"Plant response rating, Barnyardgrass",[5],30
same,"Plant response rating, Rice",[6],0
same,"Plant response rating, Sedge, Umbrella",[8],75
FC(F)c1cccc(Oc2ncc(Cl)cn2)c1-n1cc(C(F)(F)F)cn1 [Compound 170],Pigweed plant response rating,[1]; [15],100
same,"Plant response rating, Pigweed",[1]; [16],100
same,"Plant response rating, Foxtail, Giant",[2]; [15],100
same,"Foxtail, Giant plant response rating",[2]; [16],90
same,"Foxtail, Giant plant response rating",[4]; [15],70
same,"Plant response rating, Foxtail, Giant",[4]; [16],90
same,"Plant response rating, Barnyardgrass",[5],70
same,"Plant response rating, Rice",[6],50
same,"Plant response rating, Sedge, Umbrella",[8],90
same,"Plant response rating, Corn",[10]; [15],0
same,Corn plant response rating,[10]; [16],20
same,"Crabgrass, Large plant response rating",[11]; [15],70
same,"Plant response rating, Crabgrass, Large",[11]; [16],90
same,Wheat plant response rating (0 to 100 scale),[13]; 125 g ai/ha,20
same,Wheat plant response rating,[13]; [16],20
NC(=S)c1cccc(Oc2ncc(Cl)cn2)c1-n1cc(Cl)cn1 [Compound 292],"Plant response rating, Pigweed",[1]; [17],100
same,"Plant response rating, Pigweed",[1]; [16],100
same,"Foxtail, Giant plant response rating (0 to 100 scale)",[2]; 125 g ai/ha,100
same,"Foxtail, Giant plant response rating",[2]; [16],100
same,"Plant response rating, Foxtail, Giant",[4]; [17],70
same,"Plant response rating, Foxtail, Giant",[4]; [16],90
same,"Plant response rating, Barnyardgrass",[5],20
same,"Plant response rating, Rice",[6],20
same,"Plant response rating, Sedge, Umbrella",[8],75
same,Corn plant response rating (0 to 100 scale),[10]; 125 g ai/ha,20
same,Corn plant response rating,[10]; [16],30
same,"Plant response rating, Crabgrass, Large",[11]; [17],60
same,"Plant response rating, Crabgrass, Large",[11]; [16],90
same,Wheat plant response rating (0 to 100 scale),[13]; 125 g ai/ha,10
same,Wheat plant response rating,[13]; [16],30
